Reference: EP0007672A1, “Isocyanoalkenes, process and useful intermediates for their preparation, pharmaceutical and fungicidal preparations containing those isocyanoalkenes and the use of the fungicidal preparations in agriculture” (GIST-BROCADES N.V., priority 1978, dated 1980)
Values after ≈ are worked out from the molar mass of the structure shown. Like-named read-outs stand apart in the source and are kept apart here.

Experiments:
Assay in all cases: MIC (Minimum Inhibitory Concentration)
Format in all cases: cell-based
[1] = system: Candida albicans
[2] = system: Pasteurella multocida; conditions: Pasteurella multocida A 723; read-out: MIC values
[3] = system: Streptococcus haemolyticus; conditions: Streptococcus haemolyticus A 1088; read-out: MIC values
[4] = system: Trichophyton equinum
[5] = system: Trichophyton mentagrophytus
[6] = system: Trichophyton rubrum
[7] = system: Trichophyton schoenleinii; conditions: Trichophyton schoenleinii 435-63; read-out: MIC values
[8] = system: Trichophyton soudanese joyeux; conditions: Trichophyton soudanese joyeux 440-63; read-out: MIC values
[9] = system: Trichophyton tonsurans; conditions: Trichophyton tonsurans 561-50; read-out: MIC values
[10] = system: Trichophyton verrucosum; conditions: Trichophyton verrucosum 134-66, read-out: MIC values
[11] = system: Trichophyton violoceum; conditions: Trichophyton violoceum 442-62; read-out: MIC values
[12] = Candida albicans A 7, read-out: MIC values
[13] = Candida albicans A 3140, read-out: MIC values
[14] = Candida albicans A 3141, read-out: MIC values
[15] = Candida albicans A 3142, read-out: MIC values
[16] = Candida albicans A 3143, read-out: MIC values
[17] = Candida albicans A 3144, read-out: MIC values
[18] = Candida albicans A 3145, read-out: MIC values
[19] = Candida albicans A 3165, read-out: MIC values
[20] = Candida albicans A 3166, read-out: MIC values
[21] = Candida albicans A 3167, read-out: MIC values
[22] = Candida albicans A 3168, read-out: MIC values
[23] = Candida albicans A 3169, read-out: MIC values
[24] = Candida albicans A 3171, read-out: MIC values
[25] = Candida albicans A 3184, read-out: MIC values
[26] = Candida albicans A 3190, read-out: MIC values
[27] = Candida albicans A 3191, read-out: MIC values
[28] = Candida albicans A 3192, read-out: MIC values
[29] = Candida albicans A 3194, read-out: MIC values
[30] = Candida albicans A 3196, read-out: MIC values
[31] = Trichophyton equinum 441-51, read-out: MIC values
[32] = Trichophyton equinum 856-71, read-out: MIC values
[33] = Trichophyton mentagrophytus 367-68, read-out: MIC values
[34] = Trichophyton mentagrophytus 421-67, read-out: MIC values
[35] = Trichophyton mentagrophytus A 3252, read-out: MIC values
[36] = Trichophyton mentagrophytus R 177, read-out: MIC values
[37] = Trichophyton mentagrophytus R 178, read-out: MIC values
[38] = Trichophyton mentagrophytus RRL 305, read-out: MIC values
[39] = Trichophyton rubrum 218-65, read-out: MIC values
[40] = Trichophyton rubrum 494-62, read-out: MIC values
[41] = Trichophyton rubrum A 810, read-out: MIC values

Structure (SMILES): [C-]#[N+]C(=C(C)c1ccc([N+](=O)[O-])cc1)S(=O)(=O)c1ccc(C)cc1 [Example 22, 1-isocyano-2-(4-nitrophenyl)-1-(4-toluenesulphonyl)-1-propene]
- MIC [1, 12]: 1.5 µg/mL (≈ 4.38 µM)
- MIC [1, 13]: 3 µg/mL (≈ 8.76 µM)
- MIC [1, 14]: 3 µg/mL (≈ 8.76 µM)
- MIC [1, 15]: 3 µg/mL (≈ 8.76 µM)
- MIC [1, 16]: 1.5 µg/mL (≈ 4.38 µM)
- MIC [1, 17]: 3 µg/mL (≈ 8.76 µM)
- MIC [1, 18]: 3 µg/mL (≈ 8.76 µM)
- MIC [1, 19]: 3 µg/mL (≈ 8.76 µM)
- MIC [1, 20]: 1.5 µg/mL (≈ 4.38 µM)
- MIC [1, 21]: 1.5 µg/mL (≈ 4.38 µM)
- MIC [1, 22]: 3 µg/mL (≈ 8.76 µM)
- MIC [1, 23]: 3 µg/mL (≈ 8.76 µM)
- MIC [1, 24]: 3 µg/mL (≈ 8.76 µM)
- MIC [1, 25]: 1.5 µg/mL (≈ 4.38 µM)
- MIC [1, 26]: 3 µg/mL (≈ 8.76 µM)
- MIC [1, 27]: 3 µg/mL (≈ 8.76 µM)
- MIC [1, 28]: 3 µg/mL (≈ 8.76 µM)
- MIC [1, 29]: 1.5 µg/mL (≈ 4.38 µM)
- MIC [1, 30]: 3 µg/mL (≈ 8.76 µM)
- MIC [2]: 6 µg/mL (≈ 17.5 µM)
- MIC [3]: 0.8 µg/mL (≈ 2.34 µM)
- MIC [4, 31]: 1.5 µg/mL (≈ 4.38 µM)
- MIC [4, 32]: 25 µg/mL (≈ 73 µM)
- MIC [5, 33]: 3 µg/mL (≈ 8.76 µM)
- MIC [5, 34]: 12.5 µg/mL (≈ 36.5 µM)
- MIC [5, 35]: 12.5 µg/mL (≈ 36.5 µM)
- MIC [5, 36]: 6 µg/mL (≈ 17.5 µM)
- MIC [5, 37]: 6 µg/mL (≈ 17.5 µM)
- MIC [5, 38]: 6 µg/mL (≈ 17.5 µM)
- MIC [6, 39]: 3 µg/mL (≈ 8.76 µM)
- MIC [6, 40]: 6 µg/mL (≈ 17.5 µM)
- MIC [6, 41]: 3 µg/mL (≈ 8.76 µM)
- MIC [7]: 3 µg/mL (≈ 8.76 µM)
- MIC [8]: 3 µg/mL (≈ 8.76 µM)
- MIC [9]: 1.5 µg/mL (≈ 4.38 µM)
- MIC [10]: 1.5 µg/mL (≈ 4.38 µM)
- MIC [11]: 3 µg/mL (≈ 8.76 µM)

Structure (SMILES): [C-]#[N+]C(=Cc1cccn1C)S(=O)(=O)c1ccc(C)cc1 [Example 30, 2-[1-isocyano-1-(4-toluenesulphonyl)-ethen-2-yl]-1-methylpyrrole]
- MIC [1, 12]: 6 µg/mL (≈ 21 µM)
- MIC [1, 13]: 12.5 µg/mL (≈ 43.7 µM)
- MIC [1, 14]: 12.5 µg/mL (≈ 43.7 µM)
- MIC [1, 15]: 12.5 µg/mL (≈ 43.7 µM)
- MIC [1, 16]: 6 µg/mL (≈ 21 µM)
- MIC [1, 17]: 6 µg/mL (≈ 21 µM)
- MIC [1, 18]: 12.5 µg/mL (≈ 43.7 µM)
- MIC [1, 19]: 6 µg/mL (≈ 21 µM)
- MIC [1, 20]: 6 µg/mL (≈ 21 µM)
- MIC [1, 21]: 3 µg/mL (≈ 10.5 µM)
- MIC [1, 22]: 12.5 µg/mL (≈ 43.7 µM)
- MIC [1, 23]: 6 µg/mL (≈ 21 µM)
- MIC [1, 24]: 12.5 µg/mL (≈ 43.7 µM)
- MIC [1, 25]: 6 µg/mL (≈ 21 µM)
- MIC [1, 26]: 12.5 µg/mL (≈ 43.7 µM)
- MIC [1, 27]: > 100 µg/mL
- MIC [1, 28]: 6 µg/mL (≈ 21 µM)
- MIC [1, 29]: 12.5 µg/mL (≈ 43.7 µM)
- MIC [1, 30]: 12.5 µg/mL (≈ 43.7 µM)
- MIC [2]: 25 µg/mL (≈ 87.3 µM)
- MIC [3]: 25 µg/mL (≈ 87.3 µM)
- MIC [4, 31]: 0.4 µg/mL (≈ 1.4 µM)
- MIC [4, 32]: > 100 µg/mL
- MIC [5, 33]: 50 µg/mL (≈ 175 µM)
- MIC [5, 34]: > 100 µg/mL
- MIC [5, 35]: > 100 µg/mL
- MIC [5, 36]: 100 µg/mL (≈ 349 µM)
- MIC [5, 37]: > 100 µg/mL
- MIC [5, 38]: > 100 µg/mL
- MIC [6, 39]: 50 µg/mL (≈ 175 µM)
- MIC [6, 40]: > 100 µg/mL
- MIC [6, 41]: 50 µg/mL (≈ 175 µM)
- MIC [7]: 25 µg/mL (≈ 87.3 µM)
- MIC [8]: 6 µg/mL (≈ 21 µM)
- MIC [9]: 0.4 µg/mL (≈ 1.4 µM)
- MIC [10]: 6 µg/mL (≈ 21 µM)
- MIC [11]: 6 µg/mL (≈ 21 µM)
